{"source": "patent US11370798B2", "about": "(Vertex Pharmaceuticals Incorporated, priority 2012, dated 2022)"}
{"tested_on": "HCT116 colorectal cancer cells", "test": "Cisplatin sensitization assay (96 h cell viability MTS);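 further: Test-compound concentration that lowers the Cisplatin IC50 by a set fold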", "format": "cell-based", "settings": "compound and Cisplatin added simultaneously, Cisplatin sensitization value", "method_in_brief": "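Viability read by MTS (1 h at 37° C) after 96 h co-exposure at 37° C, 5% CO2. Test compound and cisplatin were dosed simultaneously in a full concentration matrix, each 2-fold serially diluted from 10 μM final; sensitization values binned in μM.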"}
{"smiles": "Nc1nn2cc(Cl)cnc2c1C(=O)Nc1cnccc1N1CCCC(N)C1", "note": "(stereo not shown) [I-N-55, 2-amino-N-(4-(3-aminopiperidin-1-yl)pyridin-3-yl)-6-chloropyrazolo[1,5-a]pyrimidine-3-carboxamide]", "Cisplatin Sensitization Assay": "++ (Cisplatin sensitization value>0.02 μM but <0.2 μM)"}
{"smiles": "Nc1nn2cc(Cl)cnc2c1C(=O)Nc1cnccc1N1CCN2CCC1CC2", "note": "[I-N-56, N-(4-(1,4-diazabicyclo[3.2.2]nonan-4-yl)pyridin-3-yl)-2-amino-6-chloropyrazolo[1,5-a]pyrimidine-3-carboxamide]", "Cisplatin Sensitization Assay": "++ (Cisplatin sensitization value>0.02 μM but <0.2 μM)"}
{"smiles": "Cc1cncc(NC(=O)c2c(N)nn3cc(Cl)cnc23)c1N1CCN(C)CC1", "note": "[I-N-57, 2-amino-6-chloro-N-(5-methyl-4-(4-methylpiperazin-1-yl)pyridin-3-yl)pyrazolo[1,5-a]pyrimidine-3-carboxamide]", "Cisplatin Sensitization Assay": "+++ (Cisplatin sensitization value of <0.02 μM)"}
{"smiles": "Nc1nn2cc(Cl)cnc2c1C(=O)Nc1cnccc1N1CCN(C2COC2)CC1", "note": "[I-N-58, 2-amino-6-chloro-N-(4-(4-(oxetan-3-yl)piperazin-1-yl)pyridin-3-yl)pyrazolo[1,5-a]pyrimidine-3-carboxamide]", "Cisplatin Sensitization Assay": "++ (Cisplatin sensitization value>0.02 μM but <0.2 μM)"}
{"smiles": "CN1CCN(c2ccncc2NC(=O)c2c(N)nn3cc(Cl)cnc23)CC1", "note": "[I-N-59, 2-amino-6-chloro-N-(4-(4-methylpiperazin-1-yl)pyridin-3-yl)pyrazolo[1,5-a]pyrimidine-3-carboxamide]", "Cisplatin Sensitization Assay": "++ (Cisplatin sensitization value>0.02 μM but <0.2 μM)"}
{"smiles": "COCCN1CCN(c2ccncc2NC(=O)c2c(N)nn3cc(Cl)cnc23)CC1", "note": "[I-N-60, 2-amino-6-chloro-N-(4-(4-(2-methoxyethyl)piperazin-1-yl)pyridin-3-yl)pyrazolo[1,5-a]pyrimidine-3-carboxamide]", "Cisplatin Sensitization Assay": "+++ (Cisplatin sensitization value of <0.02 μM)"}
{"smiles": "CN1CCN2CCN(c3ccncc3NC(=O)c3c(N)nn4cc(Cl)cnc34)CC2C1", "note": "(stereo not shown) [I-N-61, 2-amino-6-chloro-N-(4-(8-methylhexahydro-1H-pyrazino[1,2-a]pyrazin-2(6H)-yl)pyridin-3-yl)pyrazolo[1,5-a]pyrimidine-3-carboxamide]", "Cisplatin Sensitization Assay": "+++ (Cisplatin sensitization value of <0.02 μM)"}
{"smiles": "CC1(N2CCN(c3ccncc3NC(=O)c3c(N)nn4cc(F)cnc34)CC2)COC1", "note": "[I-N-62, 2-amino-6-fluoro-N-(4-(4-(3-methyloxetan-3-yl)piperazin-1-yl)pyridin-3-yl)pyrazolo[1,5-a]pyrimidine-3-carboxamide]", "Cisplatin Sensitization Assay": "++ (Cisplatin sensitization value>0.02 μM but <0.2 μM)"}
{"smiles": "CN1CCN(c2ccncc2NC(=O)c2c(N)nn3cc(Cl)cnc23)CC1CO", "note": "(stereo not shown) [I-N-63, 2-amino-6-chloro-N-(4-(3-(hydroxymethyl)-4-methylpiperazin-1-yl)pyridin-3-yl)pyrazolo[1,5-a]pyrimidine-3-carboxamide]", "Cisplatin Sensitization Assay": "++ (Cisplatin sensitization value>0.02 μM but <0.2 μM)"}
{"smiles": "Nc1nn2cc(Cl)cnc2c1C(=O)Nc1cnccc1N1CCN(C2CC2)CC1", "note": "[I-N-64, 2-amino-6-chloro-N-(4-(4-cyclopropylpiperazin-1-yl)pyridin-3-yl)pyrazolo[1,5-a]pyrimidine-3-carboxamide]", "Cisplatin Sensitization Assay": "+++ (Cisplatin sensitization value of <0.02 μM)"}
{"smiles": "Nc1nn2cc(Cl)cnc2c1C(=O)Nc1cnccc1N1CCN2CCC[C@@H]2C1", "note": "[I-N-65, (R)-2-amino-6-chloro-N-(4-(hexahydropyrrolo[1,2-a]pyrazin-2(1H)-yl)pyridin-3-yl)pyrazolo[1,5-a]pyrimidine-3-carboxamide]", "Cisplatin Sensitization Assay": "+ (Cisplatin sensitization value>0.2 μM but <5 μM)"}
{"smiles": "CC1(O)CCN(c2ccncc2NC(=O)c2c(N)nn3cc(Cl)cnc23)CC1", "note": "[I-N-66, 2-amino-6-chloro-N-(4-(4-hydroxy-4-methylpiperidin-1-yl)pyridin-3-yl)pyrazolo[1,5-a]pyrimidine-3-carboxamide]", "Cisplatin Sensitization Assay": "+++ (Cisplatin sensitization value of <0.02 μM)"}
{"smiles": "Nc1nn2cc(Cl)cnc2c1C(=O)Nc1cnccc1N1CCN(CC(F)(F)F)CC1", "note": "[I-N-67, 2-amino-6-chloro-N-(4-(4-(2,2,2-trifluoroethyl)piperazin-1-yl)pyridin-3-yl)pyrazolo[1,5-a]pyrimidine-3-carboxamide]", "Cisplatin Sensitization Assay": "+++ (Cisplatin sensitization value of <0.02 μM)"}
{"smiles": "Nc1nn2cc(Cl)cnc2c1C(=O)Nc1cnccc1N1CC[S+]([O-])CC1", "note": "[I-N-68, 2-amino-6-chloro-N-(4-(1-oxidothiomorpholino)pyridin-3-yl)pyrazolo[1,5-a]pyrimidine-3-carboxamide]", "Cisplatin Sensitization Assay": "+++ (Cisplatin sensitization value of <0.02 μM)"}
{"smiles": "CC(C)(O)C1CCN(c2ccncc2NC(=O)c2c(N)nn3cc(Cl)cnc23)CC1", "note": "[I-N-69, 2-amino-6-chloro-N-(4-(4-(2-hydroxypropan-2-yl)piperidin-1-yl)pyridin-3-yl)pyrazolo[1,5-a]pyrimidine-3-carboxamide]", "Cisplatin Sensitization Assay": "+++ (Cisplatin sensitization value of <0.02 μM)"}
{"smiles": "Nc1nn2cc(Cl)cnc2c1C(=O)Nc1cnccc1N1CCNC(C(F)(F)F)C1", "note": "(stereo not shown) [I-N-70, 2-amino-6-chloro-N-(4-(3-(trifluoromethyl)piperazin-1-yl)pyridin-3-yl)pyrazolo[1,5-a]pyrimidine-3-carboxamide]", "Cisplatin Sensitization Assay": "++ (Cisplatin sensitization value>0.02 μM but <0.2 μM)"}
{"smiles": "Nc1nn2cc(Cl)cnc2c1C(=O)Nc1cnccc1N1CCN2CCC[C@H]2C1", "note": "[I-N-71, (S)-2-amino-6-chloro-N-(4-(hexahydropyrrolo[1,2-a]pyrazin-2(1H)-yl)pyridin-3-yl)pyrazolo[1,5-a]pyrimidine-3-carboxamide]", "Cisplatin Sensitization Assay": "+++ (Cisplatin sensitization value of <0.02 μM)"}
{"smiles": "CC1CN(C)CCN1c1ccncc1NC(=O)c1c(N)nn2cc(Cl)cnc12", "note": "(stereo not shown) [I-N-72, 2-amino-6-chloro-N-(4-(2,4-dimethylpiperazin-1-yl)pyridin-3-yl)pyrazolo[1,5-a]pyrimidine-3-carboxamide]", "Cisplatin Sensitization Assay": "+++ (Cisplatin sensitization value of <0.02 μM)"}
{"smiles": "COC1CCN(c2ccncc2NC(=O)c2c(N)nn3cc(Cl)cnc23)CC1", "note": "[I-N-73, 2-amino-6-chloro-N-(4-(4-methoxypiperidin-1-yl)pyridin-3-yl)pyrazolo[1,5-a]pyrimidine-3-carboxamide]", "Cisplatin Sensitization Assay": "+++ (Cisplatin sensitization value of <0.02 μM)"}
{"smiles": "COC(=O)C1CCN(c2ccncc2NC(=O)c2c(N)nn3cc(Cl)cnc23)CC1", "note": "[I-N-74, methyl-1-(3-(2-amino-6-chloropyrazolo[1,5-a]pyrimidine-3-carboxamido)pyridin-4-yl)piperidine-4-carboxylate]", "Cisplatin Sensitization Assay": "+++ (Cisplatin sensitization value of <0.02 μM)"}
{"smiles": "Nc1nn2cc(Cl)cnc2c1C(=O)Nc1cnccc1N1CCn2cncc2C1", "note": "[I-N-75, 2-amino-6-chloro-N-(4-(5,6-dihydroimidazo[1,5-a]pyrazin-7(8H)-yl)pyridin-3-yl)pyrazolo[1,5-a]pyrimidine-3-carboxamide]", "Cisplatin Sensitization Assay": "+++ (Cisplatin sensitization value of <0.02 μM)"}
{"smiles": "CN1CCN(c2ccncc2NC(=O)c2c(N)nn3cc(C(C)(C)C#N)cnc23)CC1", "note": "[I-N-76, 2-amino-6-(2-cyanopropan-2-yl)-N-(4-(4-methylpiperazin-1-yl)pyridin-3-yl)pyrazolo[1,5-a]pyrimidine-3-carboxamide]", "Cisplatin Sensitization Assay": "+++ (Cisplatin sensitization value of <0.02 μM)"}
{"smiles": "N#CCc1cnc2c(C(=O)Nc3cnccc3N3CCCC3)c(N)nn2c1", "note": "[I-N-77, 2-amino-6-(cyanomethyl)-N-(4-(pyrrolidin-1-yl)pyridin-3-yl)pyrazolo[1,5-a]pyrimidine-3-carboxamide]", "Cisplatin Sensitization Assay": "+ (Cisplatin sensitization value>0.2 μM but <5 μM)"}
{"smiles": "N#CCc1cnc2c(C(=O)Nc3cnccc3N3CCCCCC3)c(N)nn2c1", "note": "[I-N-79, 2-amino-N-(4-(azepan-1-yl)pyridin-3-yl)-6-(cyanomethyl)pyrazolo[1,5-a]pyrimidine-3-carboxamide]", "Cisplatin Sensitization Assay": "++ (Cisplatin sensitization value>0.02 μM but <0.2 μM)"}
{"smiles": "CN1CCN(c2c(F)cncc2NC(=O)c2c(N)nn3cc(CC#N)cnc23)CC1", "note": "[I-N-80, 2-amino-6-(cyanomethyl)-N-(5-fluoro-4-(4-methylpiperazin-1-yl)pyridin-3-yl)pyrazolo[1,5-a]pyrimidine-3-carboxamide]", "Cisplatin Sensitization Assay": "++ (Cisplatin sensitization value>0.02 μM but <0.2 μM)"}
{"smiles": "N#CCc1cnc2c(C(=O)Nc3cnccc3N3CCOCC3)c(N)nn2c1", "note": "[I-N-81, 2-amino-6-(cyanomethyl)-N-(4-morpholinopyridin-3-yl)pyrazolo[1,5-a]pyrimidine-3-carboxamide]", "Cisplatin Sensitization Assay": "+++ (Cisplatin sensitization value of <0.02 μM)"}
{"smiles": "CN1CCN(c2ccncc2NC(=O)c2c(N)nn3cc(CC#N)cnc23)CC1", "note": "[I-N-82, 2-amino-6-(cyanomethyl)-N-(4-(4-methylpiperazin-1-yl)pyridin-3-yl)pyrazolo[1,5-a]pyrimidine-3-carboxamide]", "Cisplatin Sensitization Assay": "++ (Cisplatin sensitization value>0.02 μM but <0.2 μM)"}
{"smiles": "N#CCc1cnc2c(C(=O)Nc3cnccc3N3CCC(O)CC3)c(N)nn2c1", "note": "[I-N-83, 2-amino-6-(cyanomethyl)-N-(4-(4-hydroxypiperidin-1-yl)pyridin-3-yl)pyrazolo[1,5-a]pyrimidine-3-carboxamide]", "Cisplatin Sensitization Assay": "++ (Cisplatin sensitization value>0.02 μM but <0.2 μM)"}
{"smiles": "N#CCc1cnc2c(C(=O)Nc3cnccc3N3CCCCC3)c(N)nn2c1", "note": "[I-N-84, 2-amino-6-(cyanomethyl)-N-(4-(piperidin-1-yl)pyridin-3-yl)pyrazolo[1,5-a]pyrimidine-3-carboxamide]", "Cisplatin Sensitization Assay": "+++ (Cisplatin sensitization value of <0.02 μM)"}
{"smiles": "CN1CCN(c2c(Cl)cncc2NC(=O)c2c(N)nn3cc(F)cnc23)CC1", "note": "[I-N-85, 2-amino-N-(5-chloro-4-(4-methylpiperazin-1-yl)pyridin-3-yl)-6-fluoropyrazolo[1,5-a]pyrimidine-3-carboxamide]", "Cisplatin Sensitization Assay": "++ (Cisplatin sensitization value>0.02 μM but <0.2 μM)"}
{"smiles": "Nc1nn2cc(Cl)cnc2c1C(=O)Nc1cnccc1N1CCC(N)CC1", "note": "[I-N-86, 2-amino-N-(4-(4-aminopiperidin-1-yl)pyridin-3-yl)-6-chloropyrazolo[1,5-a]pyrimidine-3-carboxamide]", "Cisplatin Sensitization Assay": "+++ (Cisplatin sensitization value of <0.02 μM)"}
